Measurements from ChEMBL document CHEMBL4145597, “BMS-986163, a Negative Allosteric Modulator of GluN2B with Potential Utility in Major Depressive Disorder” (ACS Med Chem Lett, 2018).
Values after ≈ are worked out from the molar mass of the structure shown.

Experiments:
Rhesus monkey [1] = experiment: Toxicity in monkey at 3.6 to 36 mg/kg, iv administered as single dose; type: organism-based, Macaca mulatta; settings: in vivo
[2] = Stability of the compound at 50 degC up to 4 weeks using solid state compound; type: physicochemical; settings: 672 h
Rhesus monkey [3] = experiment: Cmax in monkey at 36 mg/kg, iv assessed as BMS-986169 level in plasma; type: ADME, organism-based, Macaca mulatta; set-up: dose 36 mg/kg, route intravenous; settings: in vivo
Rattus norvegicus [4] = experiment: Toxicity in rat assessed as histopathological observations at 10 to 100 mg/kg/day administered iv; type: organism-based; settings: in vivo
Rattus norvegicus [5] = experiment: Toxicity in rat assessed as clinical pathological observations at 10 to 100 mg/kg/day administered iv; type: organism-based; settings: in vivo
[6] = Stability of the compound in aqueous solution at 25 degC up to 90 days; type: physicochemical; settings: buffer, 2160 h
[7] = Aqueous solubility of the compound at pH 7.4; type: physicochemical; settings: aqueous medium

Cc1ccc(CN2CC[C@@H](N3CC[C@@H](c4ccc(OP(=O)(O)O)cc4)[C@H](F)C3)C2=O)cc1
Activity (Rhesus monkey [1]): Non-Toxic
Stability [2]: Stable
Cmax (Rhesus monkey [3]): 19 µM
Activity (Rattus norvegicus [4]): Non-Toxic
Activity (Rattus norvegicus [5]): Non-Toxic
Stability [6]: Stable
solubility [7]: 19.9 mg/mL (≈ 43 mM)
